In ChEMBL document CHEMBL1201862, “PubChem BioAssay data set” (2004):
Calls of active or inactive are those of the source.

Assays:
[1] = Luminescence Cell-Based Dose Response to Identify Activators of Luciferase Translation or Activity in H4-C Neuroglioblastoma Cells. [Related pubchem assays: 1829 (Project Summary), 1814 (Primary HTS)]; assay type: functional
[2] = Luminescence Cell-Based Dose Response to Identify Activators of 5'UTR Stem-Loop Driven Prion Protein mRNA Translation in H4-C Neuroglioblastoma Cells. [Related pubchem assays: 1829 (Project Summary), 1814 (Primary HTS)]; assay type: functional
[3] = Luminescence Cell-Based Dose Confirmation HTS to Identify Activators of 5'UTR Stem-Loop Driven Alpha-Synuclein mRNA Translation in H4 Neuroglioblastoma Cells. [Related pubchem assays: 1829 (Project Summary), 1814 (Primary HTS)]; assay type: functional
[4] = Luminescence Cell-Based Dose Response HTS to Identify Activators of Luciferase Translation or Activity in H4 […] Cells. [Related pubchem assays: 1829 (Project Summary), 1814 (Primary HTS)]; assay type: functional
[5] = Luminescence Cell-Based Dose Confirmation to Identify Activators of 5'UTR Stem-Loop Driven Alpha-Synuclein mRNA Translation in H4 Neuroglioblastoma Cells. [Related pubchem assays: 1829 (Project Summary), 1814 (Primary HTS)]; assay type: functional
H4 = assay: Luminescence Cell-Based Dose Response HTS to Identify Activators of 5'UTR Stem-Loop Driven Prion Protein mRNA Translation in H4 Neuroglioblastoma Cells. [Related pubchem assays: 1829 (Project Summary), 1814 (Primary HTS)]; assay type: functional; details: Homo sapiens
[6] = inhibitors of firefly luciferase expression or activity, dose response, H4 neuroglioma cells, luminescence (AID 1990); assay type: functional, cell-based
HT-1080 = assay: cytotoxicity in HT1080 fibrosarcoma cells, cell-based, fluorescence readout (AID 620); assay type: functional; details: Homo sapiens
[7] = inhibitors of SNCA 5'UTR-driven reporter translation, confirmation, H4 neuroglioma cells, luminescence (AID 1988); assay type: functional, cell-based
[8] = target: Luciferin 4-monooxygenase (Photinus pyralis, UniProt P08659); assay: Counter Screen for Luciferase-based Assay Positives. [Related pubchem assays: 620, 618, 411 ]
Sequence of Luciferin 4-monooxygenase (P08659 whole entry): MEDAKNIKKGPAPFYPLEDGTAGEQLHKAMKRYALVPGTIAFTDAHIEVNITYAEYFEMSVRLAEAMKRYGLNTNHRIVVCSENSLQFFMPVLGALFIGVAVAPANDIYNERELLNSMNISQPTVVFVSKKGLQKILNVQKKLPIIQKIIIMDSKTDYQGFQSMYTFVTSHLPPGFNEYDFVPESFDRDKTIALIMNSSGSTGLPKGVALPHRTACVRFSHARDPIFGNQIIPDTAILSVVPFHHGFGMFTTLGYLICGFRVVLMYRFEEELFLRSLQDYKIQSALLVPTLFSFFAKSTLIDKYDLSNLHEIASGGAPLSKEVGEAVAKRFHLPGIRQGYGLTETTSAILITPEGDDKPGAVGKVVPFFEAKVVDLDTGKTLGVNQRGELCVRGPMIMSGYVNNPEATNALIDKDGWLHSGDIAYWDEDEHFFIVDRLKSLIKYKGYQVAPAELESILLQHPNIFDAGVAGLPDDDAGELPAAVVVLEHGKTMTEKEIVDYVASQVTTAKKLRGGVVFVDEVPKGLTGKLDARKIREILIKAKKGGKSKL

[9] = target: T1, Microphthalmia-associated transcription factor (Homo sapiens, UniProt O75030); assay: TRPM1 promoter luciferase signal decrease, dose response, MITF inhibitor project, cell-based, SK-MEL-5, cherry-picked, set 3 (AID 493073); assay type: functional
T1 sequence (O75030 whole entry): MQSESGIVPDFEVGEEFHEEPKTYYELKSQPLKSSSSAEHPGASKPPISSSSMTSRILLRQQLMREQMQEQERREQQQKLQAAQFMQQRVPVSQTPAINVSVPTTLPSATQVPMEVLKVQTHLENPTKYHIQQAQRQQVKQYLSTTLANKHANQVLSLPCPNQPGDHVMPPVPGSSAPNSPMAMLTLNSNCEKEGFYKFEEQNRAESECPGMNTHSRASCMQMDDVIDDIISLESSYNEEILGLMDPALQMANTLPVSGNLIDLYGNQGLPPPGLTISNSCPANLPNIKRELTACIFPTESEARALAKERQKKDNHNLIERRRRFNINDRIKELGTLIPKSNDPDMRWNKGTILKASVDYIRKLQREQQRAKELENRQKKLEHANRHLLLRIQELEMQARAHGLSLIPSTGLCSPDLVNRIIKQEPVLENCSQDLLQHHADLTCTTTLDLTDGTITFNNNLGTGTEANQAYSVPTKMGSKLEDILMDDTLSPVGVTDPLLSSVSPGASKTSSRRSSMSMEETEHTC

[10] = Luminescence Cell-Based Dose Response HTS to Identify Inhibitors of 5'UTR Stem-Loop Driven Prion Protein mRNA Translation in H4 Neuroglioblastoma Cells. [Related pubchem assays: 1827 (Project Summary), 1813 (Primary HTS)]; assay type: functional
[11] = target: Lytic switch protein BZLF1 (Epstein-Barr virus (strain B95-8) (HHV-4) (Human herpesvirus 4), UniProt P03206); assay: EBV ZTA inhibitors, dose response, counter-screen for EBNA-1 inhibitor project, biochemical, fluorescence polarization, Epstein-Barr virus, 1536-well (AID 2377); parameters: species or system human gammaherpesvirus 4;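 also: fluorescence polarization of Cy5-labelled ZRE DNA probe bound by purified Zta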
Sequence of Lytic switch protein BZLF1 (P03206 whole entry): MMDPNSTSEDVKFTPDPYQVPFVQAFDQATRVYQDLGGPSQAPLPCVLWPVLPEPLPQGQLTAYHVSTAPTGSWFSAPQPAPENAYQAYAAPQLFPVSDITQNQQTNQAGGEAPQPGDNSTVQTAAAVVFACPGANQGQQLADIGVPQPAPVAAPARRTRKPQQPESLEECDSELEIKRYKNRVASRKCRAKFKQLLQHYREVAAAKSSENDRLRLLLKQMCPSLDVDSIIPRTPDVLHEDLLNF

[12] = target: Epstein-Barr nuclear antigen 1 (Epstein-Barr virus (strain B95-8) (HHV-4) (Human herpesvirus 4), UniProt P03211); assay: EBNA-1 inhibitors, dose response, biochemical, fluorescence polarization, 1536-well (AID 2381); parameters: species or system human gammaherpesvirus 4;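 also: fluorescence polarization of a Cy5 DNA probe bound by EBNA-1 protein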
Sequence of Epstein-Barr nuclear antigen 1 (P03211 whole entry): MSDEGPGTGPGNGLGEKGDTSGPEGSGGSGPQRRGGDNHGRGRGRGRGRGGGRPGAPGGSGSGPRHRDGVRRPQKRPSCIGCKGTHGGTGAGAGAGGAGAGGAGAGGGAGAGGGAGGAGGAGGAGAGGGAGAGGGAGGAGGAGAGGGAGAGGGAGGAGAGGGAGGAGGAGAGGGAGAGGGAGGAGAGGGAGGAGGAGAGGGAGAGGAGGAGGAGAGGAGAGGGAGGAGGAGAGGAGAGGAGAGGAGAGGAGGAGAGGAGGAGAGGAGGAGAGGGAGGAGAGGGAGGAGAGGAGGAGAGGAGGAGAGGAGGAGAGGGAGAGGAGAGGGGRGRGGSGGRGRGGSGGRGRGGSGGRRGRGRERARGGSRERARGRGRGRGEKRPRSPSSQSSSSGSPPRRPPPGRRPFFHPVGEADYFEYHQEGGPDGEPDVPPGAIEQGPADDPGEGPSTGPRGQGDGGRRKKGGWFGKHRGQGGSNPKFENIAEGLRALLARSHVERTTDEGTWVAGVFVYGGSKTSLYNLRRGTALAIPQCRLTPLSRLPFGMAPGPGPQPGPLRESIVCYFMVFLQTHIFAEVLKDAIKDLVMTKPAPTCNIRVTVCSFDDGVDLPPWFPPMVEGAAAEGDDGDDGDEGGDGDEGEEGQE

[13] = target: T2, Neuropeptide Y receptor type 1 (Homo sapiens, UniProt P25929); assay type: functional;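 also: HEK293 cells with a CNG channel challenged with NPY then isoproterenol; potency as antagonist that reverses NPY suppression of cAMP signal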
T2 sequence (P25929 whole entry): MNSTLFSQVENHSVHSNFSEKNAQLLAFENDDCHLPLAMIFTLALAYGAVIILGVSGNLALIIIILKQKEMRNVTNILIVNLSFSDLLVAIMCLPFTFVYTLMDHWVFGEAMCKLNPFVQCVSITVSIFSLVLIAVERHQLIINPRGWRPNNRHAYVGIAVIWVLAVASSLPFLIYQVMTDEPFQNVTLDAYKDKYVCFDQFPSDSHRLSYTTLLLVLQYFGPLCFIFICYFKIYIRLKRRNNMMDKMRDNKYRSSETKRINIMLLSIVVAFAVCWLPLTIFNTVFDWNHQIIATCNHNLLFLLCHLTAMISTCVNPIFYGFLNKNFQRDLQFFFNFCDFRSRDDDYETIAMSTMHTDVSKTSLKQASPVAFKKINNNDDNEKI

[14] = inhibitors of intracellular T. cruzi replication, confirmation, NIH3T3 host cells, beta-gal luminescence (AID 2044); assay type: functional, cell-based;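 also: intracellular parasites grown in NIH/3T3 mouse fibroblasts as host cells; luminescent beta-galactosidase reporter signal from transgenic T. cruzi replicating inside host cells; inhibitors lower the luminescence signal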
[15] = target: T3, Calpain-2 catalytic subunit (Sus scrofa, UniProt P43367); assay: pig calpain II inhibitor potency, dose response, biochemical, fluorogenic peptide substrate (AID 1420); assay type: functional
T3 sequence (P43367 whole entry): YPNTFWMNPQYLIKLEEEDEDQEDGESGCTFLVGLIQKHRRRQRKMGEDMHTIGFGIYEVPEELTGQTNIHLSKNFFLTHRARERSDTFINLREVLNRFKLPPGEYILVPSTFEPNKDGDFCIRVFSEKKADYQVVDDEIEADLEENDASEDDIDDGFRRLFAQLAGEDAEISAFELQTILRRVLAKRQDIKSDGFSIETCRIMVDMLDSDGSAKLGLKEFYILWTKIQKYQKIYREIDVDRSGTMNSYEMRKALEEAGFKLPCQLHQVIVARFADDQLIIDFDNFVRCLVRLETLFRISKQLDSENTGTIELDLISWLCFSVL

[16] = cytotoxicity toward NIH3T3 fibroblasts, dose response, counter-screen, cell-based, ATP luminescence, mouse fibroblasts (AID 2010); assay type: functional;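 also: cells exposed to compound for about 90 hours before reading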
[17] = target: T4, Neuropeptide Y receptor type 2 (Homo sapiens, UniProt P49146); assay type: functional, cell-based;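 also: HEK293 cells expressing the receptor and a CNG channel; stimulus was NPY near EC95 followed by isoproterenol to raise cAMP; antagonist potency measured as restoring cAMP signal that NPY suppresses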
T4 sequence (P49146 whole entry): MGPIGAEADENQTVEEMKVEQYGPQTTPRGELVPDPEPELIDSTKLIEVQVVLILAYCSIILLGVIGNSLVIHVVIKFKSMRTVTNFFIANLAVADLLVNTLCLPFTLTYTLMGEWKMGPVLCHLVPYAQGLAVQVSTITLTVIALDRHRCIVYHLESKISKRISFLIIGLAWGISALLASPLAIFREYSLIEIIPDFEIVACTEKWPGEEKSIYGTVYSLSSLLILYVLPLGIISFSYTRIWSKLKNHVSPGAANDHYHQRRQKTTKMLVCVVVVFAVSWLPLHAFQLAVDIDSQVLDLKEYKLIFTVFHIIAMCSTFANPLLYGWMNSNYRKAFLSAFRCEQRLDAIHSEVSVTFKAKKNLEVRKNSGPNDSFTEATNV

NADPH oxidase 1 = target: T5, NADPH oxidase 1 (Homo sapiens, UniProt Q9Y5S8); assay type: functional, cell-based;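 also: Cell-based assay with luminescence read-out, IC50 derived from inhibitor dose-response curves; intracellular ROS from endogenous NOX1 in intact HT29 colon cancer cells; potency of inhibitors that lower the ROS luminescence signal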
T5 sequence (Q9Y5S8 whole entry): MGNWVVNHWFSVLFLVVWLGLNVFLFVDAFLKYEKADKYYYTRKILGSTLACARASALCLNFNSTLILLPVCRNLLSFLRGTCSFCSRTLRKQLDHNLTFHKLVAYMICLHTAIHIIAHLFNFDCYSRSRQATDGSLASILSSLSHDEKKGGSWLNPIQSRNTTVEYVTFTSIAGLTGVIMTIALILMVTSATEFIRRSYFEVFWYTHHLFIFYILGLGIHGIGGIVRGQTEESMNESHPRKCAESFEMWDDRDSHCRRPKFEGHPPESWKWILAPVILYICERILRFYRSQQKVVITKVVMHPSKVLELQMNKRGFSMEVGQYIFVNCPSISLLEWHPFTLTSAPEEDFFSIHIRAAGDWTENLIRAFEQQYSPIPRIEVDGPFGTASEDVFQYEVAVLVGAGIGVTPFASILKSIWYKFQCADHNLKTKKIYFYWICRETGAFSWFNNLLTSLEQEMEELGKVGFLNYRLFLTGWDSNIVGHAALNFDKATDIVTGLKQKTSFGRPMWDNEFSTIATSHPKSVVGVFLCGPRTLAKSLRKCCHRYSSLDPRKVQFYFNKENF

[18] = A Cell Based Secondary Assay To Explore Cytotoxicity of Compounds that Sensitize Mycobacterium Tuberculosis to Beta-Lactam Antibiotics.; assay type: functional
Cytochrome P450 3A4 = Cytochrome P450 3A4 (Homo sapiens, UniProt P08684);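 also: CYP3A4 tested as one member of a cytochrome P450 panel screen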
Sequence of Cytochrome P450 3A4 (P08684 whole entry): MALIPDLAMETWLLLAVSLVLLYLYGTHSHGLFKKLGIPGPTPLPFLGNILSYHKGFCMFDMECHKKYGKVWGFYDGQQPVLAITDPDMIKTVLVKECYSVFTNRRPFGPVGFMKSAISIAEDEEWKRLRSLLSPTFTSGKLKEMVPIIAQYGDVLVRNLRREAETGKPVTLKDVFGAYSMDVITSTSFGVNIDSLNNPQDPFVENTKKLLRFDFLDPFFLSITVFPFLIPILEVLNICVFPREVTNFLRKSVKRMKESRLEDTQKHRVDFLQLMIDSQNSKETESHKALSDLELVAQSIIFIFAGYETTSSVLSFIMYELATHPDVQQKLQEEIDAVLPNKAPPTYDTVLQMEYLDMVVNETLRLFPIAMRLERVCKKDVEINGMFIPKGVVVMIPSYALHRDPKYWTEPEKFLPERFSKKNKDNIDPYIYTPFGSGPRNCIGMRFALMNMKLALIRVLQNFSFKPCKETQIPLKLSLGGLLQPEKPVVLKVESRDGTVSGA

Cytochrome P450 2C9 = Cytochrome P450 2C9 (Homo sapiens, UniProt P11712)
Sequence of Cytochrome P450 2C9 (P11712 whole entry): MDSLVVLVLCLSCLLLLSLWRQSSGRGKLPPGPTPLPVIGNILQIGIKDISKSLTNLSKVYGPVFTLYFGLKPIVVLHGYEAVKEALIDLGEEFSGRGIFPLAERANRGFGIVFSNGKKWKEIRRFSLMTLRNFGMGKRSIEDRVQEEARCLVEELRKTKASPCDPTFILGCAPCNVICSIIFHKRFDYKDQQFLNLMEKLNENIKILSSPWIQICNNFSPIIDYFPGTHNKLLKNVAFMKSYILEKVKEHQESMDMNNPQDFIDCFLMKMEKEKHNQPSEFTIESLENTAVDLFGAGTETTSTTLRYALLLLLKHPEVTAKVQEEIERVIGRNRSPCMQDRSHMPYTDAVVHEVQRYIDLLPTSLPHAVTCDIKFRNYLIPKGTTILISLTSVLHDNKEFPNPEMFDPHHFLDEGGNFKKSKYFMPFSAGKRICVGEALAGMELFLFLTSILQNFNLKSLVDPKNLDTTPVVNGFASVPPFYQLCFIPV

[19] = Luminescence-based dose response cell-based high throughput screening assay for cytotoxic compounds using the IEC-6 intestinal epithelial cell line. [Related pubchem assays: 1858 (Summary AID.), 1825 (Counterscreen.), 1907 (Confirmation screen.)]; assay type: functional
[20] = HEp-2 cell cytotoxicity, dose response, cytotoxicity control for RSV inhibitor project, HTS (AID 2410); assay type: functional; details: human respiratory syncytial virus
[21] = cytotoxicity in HEK-293T cells, dose response, cytotoxicity control for BCR NF-kB inhibitor project, luminescence, B-cell screen hits (AID 489021); assay type: functional, cell-based;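 also: HEK-293T cells carrying an NF-kB luciferase reporter; cells exposed to compound for about 14 hours before viability readout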

Cc1ccc(CNC(=O)c2ccc(Cn3cc(-c4ccc(C)cc4)nc3-c3ccncc3)cc2)cc1
EC50 [1]: 0.656 µM (active) | EC50 [2]: > 12 µM (not active) | EC50 [3]: < 0.1 µM (active) | EC50 [4]: < 0.1 µM (active) | EC50 [5]: 1.12 µM (active) | EC50 (H4): 1.33 µM (active)

O=C1c2ccccc2S(=O)(=O)N1Cc1nc2ccccc2s1
EC50 [6]: 7.48 µM (active) | EC50 (HT-1080): > 50 µM (not active) | EC50 [7]: 4.21 µM (active) | EC50 [8]: 7.63 µM (active) | AC50 [9]: 2.7 µM (active) | EC50 [10]: 7.02 µM (active)

N#Cc1ccccc1OCC(=O)Nc1c(C(=O)C2CC2)oc2ccccc12
IC50 [11]: > 111 µM (not active) | IC50 [12]: 11 µM (not active)

O=P(CCCCCCCCCP(=O)(c1ccccc1)c1ccccc1)(c1ccccc1)c1ccccc1
IC50 [13]: 10.4 µM (not active) | EC50 [14]: 1.29 µM (active) | IC50 [15]: 12 µM (not active) | EC50 [16]: > 60 µM (not active) | IC50 [17]: 1.65 µM (active)

Cc1ccc2nc3c(O)n(Cc4ccco4)cnc-3c2c1
IC50 [11]: > 111 µM (not active) | IC50 [12]: > 148 µM (not active)

COc1ccc2c(c1)Sc1ccc(Cl)cc1N2
IC50 (NADPH oxidase 1): 0.177 µM (active)

CC(C)CCSc1nc(N2CCOCC2)c2c(c1C#N)CC(C)(C)OC2
EC50 [6]: 16.4 µM (active) | EC50 [7]: 31.3 µM (active) | EC50 [14]: 1.3 µM (active) | EC50 [16]: > 60 µM (not active) | EC50 [10]: > 120 µM (not active) | CC50 [18]: > 40 µM (active)

C=C(NNc1c(Cl)c(Cl)nc(C(=O)O)c1Cl)c1ccc(N2CCOCC2)cc1
IC50 (NADPH oxidase 1): > 17 µM (not active)

O=C(Nc1cccc(Cn2cccn2)c1)c1cc2c(s1)CCCC2
EC50 [1]: 0.853 µM (active) | EC50 [2]: > 12 µM (not active) | EC50 [4]: < 0.1 µM (active) | EC50 [5]: 0.651 µM (active) | EC50 (H4): 10.9 µM (active)

C(=N\Nc1nc(Nc2ccccc2)nc(N2CCOCC2)n1)/c1c[nH]c2ccccc12
AC50 (Cytochrome P450 3A4): 15.8 µM (inconclusive) | AC50 (Cytochrome P450 2C9): 17.8 µM (inconclusive) | IC50 [19]: 0.244 µM (active) | EC50 [14]: < 0.1 µM (active) | CC50 [20]: 28.8 µM (active) | IC50 [21]: 28.5 µM (inactive) | EC50 [16]: 0.536 µM (active) | EC50 (cells): 0.018 µM (active)
